The source of these data is patent publication US20190142718A1, “NOVEL USE” (DSM IP ASSETS B.V., priority 2017, published 2019).

Structures are written as SMILES.

Holding throughout (test): Antimicrobial efficacy, challenge test in analogy to NF EN ISO11930
For one assay, the system named is P. Acnes. Format: cell-based, Propionibacterium acnes. Here is the method:
(§1) The antimicrobial efficacy is assessed in analogy to the regulatory challenge test method (NF EN IS011930). Thus, a solution of 0.2 wt.-% of phytantriol in a physiological serum with 0.85 wt.-% NaCl supplemented with 10 wt.-% ethanol was prepared. A control was also prepared under sterile conditions based on a serum with 0.85 wt.-% NaCl and 10 wt.-% ethanol.
(§2) The control as well as the phytantriol solution were deposed in 96-deep well plates (1.6 ml/well). The wells were contaminated with the respective bacterial or the fungal strains as outlined in table 1 at 2.5*10^5 to 5.6*10^5 cfu/ml for the bacteria and 1*10^4 to 2.5*10^4 cfu/ml for the fungi to obtain the initial contamination as outlined in table 1. After the contamination, each well was thoroughly mixed to ensure a homogeneous distribution of the microorganism. Then each plate was incubated at 22° C. for 24h. The counting of the (remaining) population was carried out 24h after contamination.

Another assay has as its system S. epidermidis. The class given is cell-based, Staphylococcus epidermidis. As to the method: as §1, §2
The test system of another assay is M. furfur. The class given is cell-based, Malassezia furfur. As to the method: as §1, §2
Another assay has as its system A. brasiliensis. Format: cell-based, Aspergillus brasiliensis. Here is the method:
as §1, §2

A further assay relates to S. aureus. The class given is cell-based, Staphylococcus aureus. Here is the method: as §1, §2
In the next assay the test system is C. albicans. Format: cell-based, Candida albicans. Here is the method: as §1, §2

In the case of `CC(C)CCCC(C)CCCC(C)CCCC(C)(O)C(O)CO` (stereo not drawn) [Phytantriol, 3,7,11,15-tetramethyl-hexadecane-1,2,3-triol], the “colony counts 24 h” value in the assay with P. Acnes (0.2 wt.-% phytantriol in 0.85 wt.-% NaCl serum with 10 wt.-% ethanol, 22° C., 24 h after contamination, 0 h count 310000, control 24 h 30000) worked out at 28000 cfu/ml; with S. epidermidis (0.2 wt.-% phytantriol in 0.85 wt.-% NaCl serum with 10 wt.-% ethanol, 22° C., 24 h after contamination, 0 h count 560000, control 24 h 28000), 0 cfu/ml; in the assay with M. furfur (0.2 wt.-% phytantriol in 0.85 wt.-% NaCl serum with 10 wt.-% ethanol, 22° C., 24 h after contamination, 0 h count 4000, control 24 h 775), 0 cfu/ml; in the assay on A. brasiliensis (0.2 wt.-% phytantriol in 0.85 wt.-% NaCl serum with 10 wt.-% ethanol, 22° C., 24 h after contamination, 0 h count 10000, control 24 h 1000), 10 cfu/ml; in the assay with S. aureus (0.2 wt.-% phytantriol in 0.85 wt.-% NaCl serum with 10 wt.-% ethanol, 22° C., 24 h after contamination, 0 h count 250000, control 24 h 280000), 0 cfu/ml; with C. albicans (0.2 wt.-% phytantriol in 0.85 wt.-% NaCl serum with 10 wt.-% ethanol, 22° C., 24 h after contamination, 0 h count 25000, control 24 h 5000), 1000 cfu/ml. The antimicrobial effect result is given as “significant antimicrobial effect” in the assay with P. Acnes (against Propionibacterium acnes, 0.2 wt.-%, 24 h); “significant antimicrobial effect” in the assay on S. epidermidis (against Staphylococcus epidermidis, 0.2 wt.-%, 24 h); “significant antimicrobial effect” with M. furfur (against Malassezia furfur, 0.2 wt.-%, 24 h); “significant antimicrobial effect” with A. brasiliensis (against Aspergillus brasiliensis, 0.2 wt.-%, 24 h); “significant antimicrobial effect” in the assay on S. aureus (against Staphylococcus aureus, 0.2 wt.-%, 24 h); “significant antimicrobial effect” with C. albicans (against Candida albicans, 0.2 wt.-%, 24 h).
